One assay deals with IMP-1 (Serratia marcescens, UniProt P52699). The experiment in a line: biochemical. It is filed as biochemical. The settings on record: fluorescence assay with CCF2-FA substrate; read-out: IMP-1 IC50.
In assay [1] the test system is Escherichia coli expressing NDM-1 (CLB30016). The experiment in a line: Antibiotic potentiation activity: synergistic concentration (MITC95) with imipenem, OD600 growth. The conditions noted are these: CLB30016 (NDM-1), 95% inhibition of bacterial growth. It is filed as cell-based. The gist of the method: (§1)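 Test compound was combined with 4 μg/ml imipenem (or optionally 1 μg/ml), or with no antibiotic, against saline-suspended colonies diluted 1:100 in 1.1×CAMHB. Strains were E. coli NDM-1, S. marcescens IMP-1 and K. pneumoniae VIM-1. Plates were incubated 22–24 h at 35 °C before absorbance (OD600) readout.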

For assay [2], the system named is Klebsiella pneumoniae expressing VIM-1 (IHMA599644). The assay is described as above. The assay is classed as cell-based. The conditions noted are these: IHMA599644 (VIM-1), 95% inhibition of bacterial growth. The gist of the method: as §1
The subject of assay [3] is Serratia marcescens expressing IMP-1 (CL5741). The description is as above. The assay is classed as cell-based. The conditions noted are these: CL5741 (IMP-1), 95% inhibition of bacterial growth. The gist of the method:
as §1

Another assay deals with VIM-1 (Pseudomonas aeruginosa (strain ATCC 15692 / DSM 22644 / CIP 104116 / JCM 14847 / LMG 12228 / 1C / PRS 101 / PAO1), UniProt A0A0F7KYQ8). Put plainly: Enzyme activity: determination of IC50, fluorescence assay with CCF2-FA substrate (VIM-1). It is filed as biochemical.
The next assay deals with NDM-1 (Klebsiella pneumoniae, UniProt C7C422). Put plainly: biochemical. It is filed as biochemical. The settings on record: fluorescence assay with CCF2-FA substrate; read-out: NDM-1 IC50.
Chain of NDM-1 (C7C422 whole entry, looked up, species assumed): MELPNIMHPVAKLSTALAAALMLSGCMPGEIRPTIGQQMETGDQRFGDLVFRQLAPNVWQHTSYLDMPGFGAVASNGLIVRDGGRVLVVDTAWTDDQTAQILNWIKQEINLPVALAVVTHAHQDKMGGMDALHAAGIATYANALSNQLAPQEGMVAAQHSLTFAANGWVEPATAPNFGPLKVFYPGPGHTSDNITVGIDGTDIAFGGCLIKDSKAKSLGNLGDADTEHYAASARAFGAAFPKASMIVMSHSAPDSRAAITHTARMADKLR
Where [4] appears, read: VIM-1 IC50, fluorescence assay with CCF2-FA substrate.
The mark [5] stands for this setting: fluorescence assay with CCF2-FA substrate, read-out: VIM-1 IC50.

SMILES strings stand for the structures. Where two headings read alike, the source gives them in different places.

Chain of IMP-1 (P52699 whole entry, looked up): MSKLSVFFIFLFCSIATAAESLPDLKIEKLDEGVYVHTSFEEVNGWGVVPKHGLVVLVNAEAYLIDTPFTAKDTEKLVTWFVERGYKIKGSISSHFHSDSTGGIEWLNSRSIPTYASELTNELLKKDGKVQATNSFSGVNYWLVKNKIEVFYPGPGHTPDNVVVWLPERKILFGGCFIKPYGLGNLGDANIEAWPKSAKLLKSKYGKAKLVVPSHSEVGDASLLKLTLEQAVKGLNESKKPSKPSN

In general, IC50 refers to the concentration at which inhibition is half-maximal. As for `NC1CN(C2CCN(c3ccc(C(F)(F)F)c(S(N)(=O)=O)c3-c3nnn[nH]3)CC2)C1` [Example 758, 3-[4-(3-aminoazetidin-1-yl)piperidin-1-yl]-2-(1H-tetrazol-5-yl)-6-(trifluoromethyl) benzenesulfonamide], the IC50 turned out to be 0.0458 µM at IMP-1, 0.00244 µM on VIM-1 (setting [4]) and 0.0296 µM on NDM-1. In assay [1], the “Escherichia coli MITC95” value worked out at 6.25 µM. In addition, the “Klebsiella pneumoniae MITC95” value in assay [2] came out at 6.25 µM. Moreover, in assay [3], the “Serratia marcescens MITC95” value worked out at 6.25 µM.

Turning to `NS(=O)(=O)c1c(C(F)(F)F)ccc(N2CCN(CCO)CC2)c1-c1nnn[nH]1` [Example 759, 3-[4-(2-hydroxyethyl)piperazin-1-yl]-2-(1H-tetrazol-5-yl)-6-(trifluoromethyl) benzenesulfonamide], the IC50 stood at 0.0409 µM at IMP-1, 0.0456 µM on VIM-1 (setting [5]) and 0.0225 µM at NDM-1. Besides, the “Escherichia coli MITC95” value in assay [1] was determined as 3.125 µM. In assay [2], the “Klebsiella pneumoniae MITC95” value worked out at 12.5 µM. The “Serratia marcescens MITC95” value in assay [3] was determined as 3.125 µM.

With `CC(C)(C)C(=O)NCC1CCN(c2ccc(C(F)(F)F)c(S(N)(=O)=O)c2-c2nnn[nH]2)CC1` [Example 760, 2,2-dimethyl-N-({1-[3-sulfamoyl-2-(1H-tetrazol-5-yl)-4-(trifluoromethyl)phenyl]piperidin-4-yl}methyl) propanamide], the IC50 stood at 0.00208 µM at IMP-1, 0.00151 µM on VIM-1 (setting [5]) and 0.00564 µM at NDM-1. In addition, the “Escherichia coli MITC95” value in assay [1] was 100 µM. In assay [2], the “Klebsiella pneumoniae MITC95” value stood at 100 µM. For the same compound, in assay [3], the “Serratia marcescens MITC95” value stood at 25 µM.

As for `NC1CCCC12CCN(c1ccc(C(F)(F)F)c(S(N)(=O)=O)c1-c1nnn[nH]1)CC2` (stereo not drawn) [Example 761, 3-(1-amino-8-azaspiro[4.5]dec-8-yl)-2-(1H-tetrazol-5-yl)-6-(trifluoromethyl) benzenesulfonamide], the IC50 on IMP-1 was 0.104 µM; on VIM-1 (setting [5]), 0.0483 µM; at NDM-1, 0.046 µM. Also, the “Escherichia coli MITC95” value in assay [1] turned out to be 100 µM. For the same compound, the “Klebsiella pneumoniae MITC95” value in assay [2] was above 200 µM. In addition, in assay [3], the “Serratia marcescens MITC95” value was 100 µM.

For `NCC1CN(C2CCN(c3ccc(C(F)(F)F)c(S(N)(=O)=O)c3-c3nnn[nH]3)CC2)C1` [Example 762, 3-{4-[3-(aminomethyl)azetidin-1-yl]piperidin-1-yl}-2-(1H-tetrazol-5-yl)-6-(trifluoromethyl) benzenesulfonamide], the IC50 was 0.123 µM on IMP-1, 0.0142 µM on VIM-1 (setting [5]) and 0.0732 µM at NDM-1. In addition, in assay [1], the “Escherichia coli MITC95” value stood at 3.125 µM. In addition, the “Klebsiella pneumoniae MITC95” value in assay [2] was determined as 6.25 µM. In addition, the “Serratia marcescens MITC95” value in assay [3] came to 6.25 µM.

For the compound `NS(=O)(=O)c1c(C(F)(F)F)ccc(N2CCN(CCCO)CC2)c1-c1nnn[nH]1` [Example 763, 3-[4-(3-hydroxypropyl)piperazin-1-yl]-2-(1H-tetrazol-5-yl)-6-(trifluoromethyl) benzenesulfonamide], the IC50 on IMP-1 was 0.0464 µM; on VIM-1 (setting [5]), 0.0736 µM; on NDM-1, 0.0377 µM. For the same compound, in assay [1], the “Escherichia coli MITC95” value was found to be 1.563 µM. Besides, the “Klebsiella pneumoniae MITC95” value in assay [2] was found to be 50 µM. The “Serratia marcescens MITC95” value in assay [3] came to 3.125 µM.

Take `Nc1nnc(C2CCN(c3ccc(C(F)(F)F)c(S(N)(=O)=O)c3-c3nnn[nH]3)CC2)s1` [Example 764, 3-[4-(5-amino-1,3,4-thiadiazol-2-yl)piperidin-1-yl]-2-(1H-tetrazol-5-yl)-6-(trifluoromethyl) benzenesulfonamide]: the IC50 at IMP-1 worked out at 0.0687 µM; against VIM-1 (setting [4]), 0.0277 µM; on NDM-1, 0.273 µM. In assay [1], the “Escherichia coli MITC95” value was found to be 100 µM. In assay [2], the “Klebsiella pneumoniae MITC95” value was above 200 µM. Further, in assay [3], the “Serratia marcescens MITC95” value was 50 µM.

In the case of `NCCCCN1CCN(c2ccc(C(F)(F)F)c(S(N)(=O)=O)c2-c2nnn[nH]2)CC1` [Example 765, 3-[4-(4-aminobutyl)piperazin-1-yl]-2-(1H-tetrazol-5-yl)-6-(trifluoromethyl) benzenesulfonamide], the IC50 on IMP-1 stood at 0.131 µM; at VIM-1 (setting [5]), 0.125 µM; on NDM-1 it was 0.0933 µM. Moreover, the “Escherichia coli MITC95” value in assay [1] was 6.25 µM. Moreover, the “Klebsiella pneumoniae MITC95” value in assay [2] amounted to 25 µM. In addition, the “Serratia marcescens MITC95” value in assay [3] was found to be 3.125 µM.

In the case of `NC1(C2CCN(c3ccc(C(F)(F)F)c(S(N)(=O)=O)c3-c3nnn[nH]3)C2)CC1` (stereo not drawn) [Example 766, 3-[3-(1-aminocyclopropyl)pyrrolidin-1-yl]-2-(1H-tetrazol-5-yl)-6-(trifluoromethyl) benzenesulfonamide], the IC50 was 0.12 µM on IMP-1, 0.00852 µM at VIM-1 (setting [4]) and 0.134 µM at NDM-1. For the same compound, the “Escherichia coli MITC95” value in assay [1] is 25 µM. Also, the “Klebsiella pneumoniae MITC95” value in assay [2] came to 12.5 µM. In addition, the “Serratia marcescens MITC95” value in assay [3] is 25 µM.

Take `NC1CCC2CN(c3ccc(C(F)(F)F)c(S(N)(=O)=O)c3-c3nnn[nH]3)CC2C1` (stereo not drawn) [Example 767, 3-(5-aminooctahydro-2H-isoindol-2-yl)-2-(1H-tetrazol-5-yl)-6-(trifluoromethyl) benzenesulfonamide]: the IC50 worked out at 0.223 µM on IMP-1, 0.00458 µM at VIM-1 (setting [5]) and 0.208 µM at NDM-1. Further, the “Escherichia coli MITC95” value in assay [1] is 200 µM. For the same compound, the “Klebsiella pneumoniae MITC95” value in assay [2] was determined as 12.5 µM. Moreover, the “Serratia marcescens MITC95” value in assay [3] is 50 µM.

Turning to `NS(=O)(=O)c1c(C(F)(F)F)ccc(N2CCCC(CCCO)C2)c1-c1nnn[nH]1` (stereo not drawn) [Example 769, 3-[3-(3-hydroxypropyl)piperidin-1-yl]-2-(1H-tetrazol-5-yl)-6-(trifluoromethyl) benzenesulfonamide], the IC50 on IMP-1 was 0.0114 µM; on VIM-1 (setting [5]) it was 0.000998 µM; at NDM-1 it was 0.00748 µM. Further, the “Escherichia coli MITC95” value in assay [1] worked out at 100 µM. Further, the “Klebsiella pneumoniae MITC95” value in assay [2] is 50 µM. Also, the “Serratia marcescens MITC95” value in assay [3] amounted to 25 µM.

As to `NS(=O)(=O)c1c(C(F)(F)F)ccc(N2CCC(N3CCNCC3)C2)c1-c1nnn[nH]1` (stereo not drawn) [Example 770, 3-(3-piperazin-1-ylpyrrolidin-1-yl)-2-(1H-tetrazol-5-yl)-6-(trifluoromethyl) benzenesulfonamide], the IC50 on IMP-1 was determined as 0.251 µM; at VIM-1 (setting [5]), 0.00751 µM; at NDM-1, 0.366 µM. For the same compound, the “Escherichia coli MITC95” value in assay [1] turned out to be 50 µM. Besides, the “Klebsiella pneumoniae MITC95” value in assay [2] turned out to be 3.125 µM. In addition, the “Serratia marcescens MITC95” value in assay [3] was 50 µM.

Consider `NS(=O)(=O)c1c(C(F)(F)F)ccc(N2CCC3(CCNCC3)C2)c1-c1nnn[nH]1` [Example 771, 3-(2,8-diazaspiro[4.5]dec-2-yl)-2-(1H-tetrazol-5-yl)-6-(trifluoromethyl) benzenesulfonamide], for which the values for the IC50 at IMP-1, on VIM-1 (setting [5]) and at NDM-1 were 0.227 µM, 0.0229 µM and 0.0307 µM, respectively. Moreover, in assay [1], the “Escherichia coli MITC95” value is 25 µM. Further, the “Klebsiella pneumoniae MITC95” value in assay [2] was 50 µM. Also, in assay [3], the “Serratia marcescens MITC95” value came out at 50 µM.

For `NS(=O)(=O)c1c(C(F)(F)F)ccc(N2CCCC3(CCNCC3)C2)c1-c1nnn[nH]1` [Example 772, 3-(2,9-diazaspiro[5.5]undec-2-yl)-2-(1H-tetrazol-5-yl)-6-(trifluoromethyl) benzenesulfonamide], the IC50 turned out to be 0.114 µM at IMP-1, 0.0139 µM at VIM-1 (setting [5]) and 0.0339 µM on NDM-1. Also, the “Escherichia coli MITC95” value in assay [1] worked out at 12.5 µM. Besides, the “Klebsiella pneumoniae MITC95” value in assay [2] came to 50 µM. Besides, in assay [3], the “Serratia marcescens MITC95” value came to 50 µM.

Regarding `NS(=O)(=O)c1c(C(F)(F)F)ccc(N2CC[C@H]3NCCO[C@@H]3C2)c1-c1nnn[nH]1` [Example 773, 3-[(4aR,8aR)-octahydro-6H-pyrido[3,4-b][1,4]oxazin-6-yl]-2-(1H-tetrazol-5-yl)-6-(trifluoromethyl) benzenesulfonamide], the results for the concentration for half-maximal inhibition (IC50) on IMP-1, at VIM-1 (setting [5]) and at NDM-1 were 0.0172 µM, 0.00111 µM and 0.0318 µM, respectively. The “Escherichia coli MITC95” value in assay [1] is 6.25 µM. Besides, the “Klebsiella pneumoniae MITC95” value in assay [2] is 3.125 µM. Also, the “Serratia marcescens MITC95” value in assay [3] was found to be 6.25 µM.

As to `NS(=O)(=O)c1c(C(F)(F)F)ccc(N2CCC(C3CCNCC3)C2)c1-c1nnn[nH]1` (stereo not drawn) [Example 774, 3-(3-piperidin-4-ylpyrrolidin-1-yl)-2-(1H-tetrazol-5-yl)-6-(trifluoromethyl) benzenesulfonamide], the figures for the IC50 on IMP-1, against VIM-1 (setting [4]) and on NDM-1 were 0.0291 µM, 0.00135 µM and 0.0626 µM, respectively. In addition, the “Escherichia coli MITC95” value in assay [1] was 25 µM. For the same compound, in assay [2], the “Klebsiella pneumoniae MITC95” value came to 6.25 µM. Besides, the “Serratia marcescens MITC95” value in assay [3] is 25 µM.

In the case of `NS(=O)(=O)c1c(C(F)(F)F)ccc(N2CCC3(CCNC3)CC2)c1-c1nnn[nH]1` [Example 775, 3-(2,8-diazaspiro[4.5]dec-8-yl)-2-(1H-tetrazol-5-yl)-6-(trifluoromethyl) benzenesulfonamide], the figures for the IC50 on IMP-1, on VIM-1 (setting [5]) and on NDM-1 were 0.0358 µM, 0.00519 µM and 0.00904 µM, respectively. For the same compound, the “Escherichia coli MITC95” value in assay [1] stood at 3.125 µM. In assay [2], the “Klebsiella pneumoniae MITC95” value worked out at 12.5 µM. The “Serratia marcescens MITC95” value in assay [3] was determined as 6.25 µM.

These data come from patent US9708336B2, “Metallo-beta-lactamase inhibitors” (priority 2014, dated 2017).
